pIC50: −log10 of the molar value. Values after ≈ are worked out from the molar mass of the structure shown. Like-named read-outs stand apart in the source and are kept apart here.
What was measured:
[1] = test system: Mycobacterium tuberculosis H37Ra; assay: Antimycobacterial microdilution broth MIC (resazurin), Mtb H37Ra; type: cell-based; conditions: Mycobacterium tuberculosis, H37RA, read-out: MIC Mtb H37Ra
[2] = test system: Mycolicibacterium smegmatis DSM 43465; assay: Antimycobacterial microdilution broth MIC (resazurin), M. smegmatis; type: cell-based; conditions: DSM43465, read-out: MIC M. smegmatis
[3] = test system: Mycolicibacterium aurum DSM 43999; assay: Antimycobacterial microdilution broth MIC (resazurin), M. aurum; type: cell-based; conditions: DSM43999, read-out: MIC M. aurum
HepG2 cell line = assay: Cytotoxicity CellTiter 96, HepG2; type: cell-based, human; conditions: Homo sapiens, HepG2, 24 h, 24 h incubation; ^c compound precipitated in the testing medium; ^d over the limit of tested concentrations
[4] = test system: Staphylococcus aureus CCM 4223, ATCC 29213; assay: Antibacterial microdilution broth MIC, SA; type: cell-based; conditions: Staphylococcus aureus
[5] = test system: Staphylococcus aureus subsp. aureus CCM 4750, ATCC 43300 (MRSA); assay: Antibacterial microdilution broth MIC, MRSA; type: cell-based; conditions: Staphylococcus aureus
[6] = test system: Staphylococcus epidermidis CCM 4418, ATCC 12228; assay: Antibacterial microdilution broth MIC, SE; type: cell-based
[7] = test system: Enterococcus faecalis CCM 4224, ATCC 29212; assay: Antibacterial microdilution broth MIC, EF; type: cell-based
[8] = test system: Escherichia coli CCM 3954, ATCC 25922; assay: Antibacterial microdilution broth MIC, EC; type: cell-based
[9] = test system: Acinetobacter baumannii DSM 30007, ATCC 19606; assay: Antibacterial microdilution broth MIC, ACI; type: cell-based
[10] = test system: Pseudomonas aeruginosa CCM 3955, ATCC 27853; assay: Antibacterial microdilution broth MIC, PA; type: cell-based
[11] = test system: Candida albicans CCM 8320, ATCC 24433; assay: Antifungal microdilution broth MIC, CA
[12] = test system: Candida krusei CCM 8271, ATCC 6258; assay: Antifungal microdilution broth MIC, CK; conditions: Pichia kudriavzevii
[13] = test system: Candida parapsilosis CCM 8260, ATCC 22019; assay: Antifungal microdilution broth MIC, CP; conditions: Lodderomyces parapsilosis
[14] = test system: Candida tropicalis CCM 8264, ATCC 750; assay: Antifungal microdilution broth MIC, CT
[15] = test system: Aspergillus fumigatus ATCC 204305; assay: Antifungal microdilution broth MIC, AF
[16] = test system: Lichtheimia corymbifera CCM 8077; assay: Antifungal microdilution broth MIC, LC
[17] = test system: Trichophyton interdigitale CCM 8377, ATCC 9533; assay: Antifungal microdilution broth MIC, TI; conditions: Trichophyton interdigitale
[18] = test system: Aspergillus flavus CCM 8363; assay: Antifungal microdilution broth MIC, AFla
[19] = test system: Klebsiella pneumoniae CCM 4415, ATCC 10031; assay: Antibacterial microdilution broth MIC, KP
[20] = ATCC204305, 24 h, read-out: MIC AF 24h
[21] = ATCC204305, 48 h, read-out: MIC AF 48h
[22] = CCM8077, 24 h, read-out: MIC LC 24h
[23] = CCM8077, 48 h, read-out: MIC LC 48h
[24] = CCM8363, 24 h, read-out: MIC AFla 24h
[25] = CCM8363, 48 h, read-out: MIC AFla 48h

| SMILES | MIC ([1]; Calculated from MIC (μg/mL)) [µM] | MIC [1] [µg/mL] | MIC [2] [µg/mL] | MIC [3] [µg/mL] | pIC50 (HepG2 cell line) | MIC ([4]; 24 h, read-out: MIC SA 24h) [µM] | MIC ([4]; 48 h, read-out: MIC SA 48h) [µM] | MIC ([5]; 24 h, read-out: MIC MRSA 24h) [µM] | MIC ([5]; 48 h, read-out: MIC MRSA 48h) [µM] | MIC ([6]; 24 h, read-out: MIC SE 24h) [µM] | MIC ([6]; 48 h, read-out: MIC SE 48h) [µM] | MIC ([7]; 24 h, read-out: MIC EF 24h) [µM] | MIC ([7]; 48 h, read-out: MIC EF 48h) [µM] | MIC ([8]; 24 h, read-out: MIC EC 24h) [µM] | MIC ([8]; 48 h, read-out: MIC EC 48h) [µM] | MIC ([9]; 24 h, read-out: MIC ACI 24h) [µM] | MIC ([9]; 48 h, read-out: MIC ACI 48h) [µM] | MIC ([10]; 24 h, read-out: MIC PA 24h) [µM] | MIC ([10]; 48 h, read-out: MIC PA 48h) [µM] | MIC ([11]; 24 h, read-out: MIC CA 24h) [µM] | other results |
| --- | --- | --- | --- | --- | --- | --- | --- | --- | --- | --- | --- | --- | --- | --- | --- | --- | --- | --- | --- | --- | --- |
| COc1ccc(CC(=O)Nc2ccc(Cl)cn2)cc1 [Compound 11, 2-(4-methoxyphenyl)-N-(5-chloropyridin-2-yl)acetamide] | > 1800 | > 500 | > 500 | > 500 | 3.40 | 250 (≈ 69.2 µg/mL) | 500 (≈ 138 µg/mL) | > 500 | > 500 | > 500 | > 500 | > 500 | > 500 | > 500 | > 500 | > 500 | > 500 | > 500 | > 500 | > 500 | MIC ([11]; 48 h, read-out: MIC CA 48h): > 500 µM; MIC ([12]; 24 h, read-out: MIC CK 24h): > 500 µM; MIC ([12]; 48 h, read-out: MIC CK 48h): > 500 µM; MIC ([13]; 24 h, read-out: MIC CP 24h): > 500 µM; MIC ([13]; 48 h, read-out: MIC CP 48h): > 500 µM; MIC ([14]; 24 h, read-out: MIC CT 24h): > 500 µM; MIC ([14]; 48 h, read-out: MIC CT 48h): > 500 µM; MIC [15, 20]: > 500 µM; MIC [15, 21]: > 500 µM; MIC [16, 22]: > 500 µM; MIC [16, 23]: > 500 µM; MIC ([17]; 72 h, read-out: MIC TI 72h): > 500 µM; MIC ([17]; 120 h, read-out: MIC TI 120h): > 500 µM; MIC [18, 24]: > 500 µM; MIC [18, 25]: > 500 µM; MIC KP 24h [19]: > 500 µM; MIC KP 48h [19]: > 500 µM |
| O=C(Cc1ccccc1Cl)Nc1ccccn1 [Compound 13, 2-(2-chlorophenyl)-N-(pyridin-2-yl)acetamide] | 253 | 62.5 | > 500 | 250 (≈ 1010 µM) | 3.12 | > 500 | > 500 | > 500 | > 500 | 500 (≈ 123 µg/mL) | 500 (≈ 123 µg/mL) | > 500 | > 500 | > 500 | > 500 | > 500 | > 500 | > 500 | > 500 | > 500 | MIC ([11]; 48 h, read-out: MIC CA 48h): > 500 µM; MIC ([12]; 24 h, read-out: MIC CK 24h): > 500 µM; MIC ([12]; 48 h, read-out: MIC CK 48h): > 500 µM; MIC ([13]; 24 h, read-out: MIC CP 24h): > 500 µM; MIC ([13]; 48 h, read-out: MIC CP 48h): > 500 µM; MIC ([14]; 24 h, read-out: MIC CT 24h): > 500 µM; MIC ([14]; 48 h, read-out: MIC CT 48h): > 500 µM; MIC [15, 20]: > 500 µM; MIC [15, 21]: > 500 µM; MIC [16, 22]: > 500 µM; MIC [16, 23]: > 500 µM; MIC ([17]; 72 h, read-out: MIC TI 72h): 500 µM (≈ 123 µg/mL); MIC ([17]; 120 h, read-out: MIC TI 120h): 500 µM (≈ 123 µg/mL); MIC [18, 24]: > 500 µM; MIC [18, 25]: > 500 µM; MIC KP 24h [19]: > 500 µM; MIC KP 48h [19]: > 500 µM |
| O=C(Cc1ccccc1Cl)Nc1ccc(Cl)cn1 [Compound 14, 2-(2-chlorophenyl)-N-(5-chloropyridin-2-yl)acetamide] | > 1780 | > 500 | > 500 | > 500 | < 4.30 | > 500 | > 500 | > 500 | > 500 | > 500 | > 500 | > 500 | > 500 | > 500 | > 500 | > 500 | > 500 | > 500 | > 500 | > 500 | MIC ([11]; 48 h, read-out: MIC CA 48h): > 500 µM; MIC ([12]; 24 h, read-out: MIC CK 24h): > 500 µM; MIC ([12]; 48 h, read-out: MIC CK 48h): > 500 µM; MIC ([13]; 24 h, read-out: MIC CP 24h): > 500 µM; MIC ([13]; 48 h, read-out: MIC CP 48h): > 500 µM; MIC ([14]; 24 h, read-out: MIC CT 24h): > 500 µM; MIC ([14]; 48 h, read-out: MIC CT 48h): > 500 µM; MIC [15, 20]: > 500 µM; MIC [15, 21]: > 500 µM; MIC [16, 22]: > 500 µM; MIC [16, 23]: > 500 µM; MIC ([17]; 72 h, read-out: MIC TI 72h): > 500 µM; MIC ([17]; 120 h, read-out: MIC TI 120h): > 500 µM; MIC [18, 24]: > 500 µM; MIC [18, 25]: > 500 µM; MIC KP 24h [19]: > 500 µM; MIC KP 48h [19]: > 500 µM |
